Test results: ChEMBL document CHEMBL5338747, “Discovery of Quaternized Pyridine-Thiazole-Pleuromutilin Derivatives with Broad-Spectrum Antibacterial and Potent Anti-MRSA Activity” (J Med Chem, 2023)
Active and inactive are the calls of the source. No cut-off for these calls is given here.

Columns and labels:
Staphylococcus aureus [1] = test: Antibacterial activity against methicillin-resistant Staphylococcus aureus 171 assessed as inhibition of bacterial growth incubated for 24 hrs by broth microdilution method; type: functional
[2] = Cmax in Sprague-Dawley rat at 1 mg/kg, iv by LC-MS analysis; type: ADME, organism-based; parameters: dose 1 mg/kg, route iv; details: in vivo
[3] = Clearance in Sprague-Dawley rat at 1 mg/kg, iv by LC-MS analysis; type: ADME, organism-based; details: in vivo
Staphylococcus aureus [4] = test: Antibacterial activity against methicillin-resistant Staphylococcus aureus ATCC 33591 infected in Kunming mouse assessed as reduction in bacterial load in kidney at 5 to 10 mg/kg, ip for 2 days starting from 1 hr post-infection by hematoxylin-eosin staining based analysis; type: functional, organism-based; details: dose 5-10 mg/kg, time 2.0 day
[5] = Tmax in Sprague-Dawley rat at 1 mg/kg, iv by LC-MS analysis; type: ADME, organism-based; details: in vivo
[6] = tested on: Staphylococcus epidermidis; test: Antibacterial activity against methicillin-resistant Staphylococcus epidermidis ATCC 51625 assessed as inhibition of bacterial growth incubated for 24 hrs by broth microdilution method; type: functional
Cell membrane [7] = test: Disruption of bacterial cell membrane in Escherichia coli ATCC 25922 assessed as increase in fluorescence intensity at 8XMIC measured within 3 mins by DiBAC4(3) dye based fluorescence analysis relative to control
[8] = tested on: Mycoplasmoides pneumoniae; test: Anti-mycoplasma activity against Mycoplasma pneumoniae M129 ATCC15531 assessed as inhibition of mycoplasma growth measured after 7 days by broth microdilution method; type: functional; details: M129 ATCC15531, 168 h, time 7 day
Escherichia coli [9] = test: Bactericidal activity against Escherichia coli ATCC 25922 assessed as reduction in bacterial colonies formation at MIC incubated for 24 hrs in MHB followed by culturing on agar plate for 24 hrs by time-kill kinetics based analysis; type: functional; details: time 48 hrs
Cell membrane [10] = test: Disruption of bacterial cell membrane in Escherichia coli ATCC 25922 incubated for 4 hrs by FESEM analysis; type: subcellular
Staphylococcus aureus [11] = test: Disruption of biofilm formation in methicillin-resistant Staphylococcus aureus ATCC 33591 assessed as inhibition of biofilm formation at MIC measured after 24 hrs by crystal violet staining based analysis; type: functional
Staphylococcus aureus [12] = test: Antibacterial activity against methicillin-resistant Staphylococcus aureus ATCC 33591 infected in Kunming mouse assessed as reduction in number of inflammatory cells in liver at 10 mg/kg, ip for 2 days starting from 1 hr post-infection by hematoxylin-eosin staining based analysis; type: functional, organism-based; details: time 2.0 day
Escherichia coli [13] = test: Antibacterial activity against Escherichia coli CMCC 44103 assessed as inhibition of bacterial growth incubated for 24 hrs by broth microdilution method; type: functional
Staphylococcus aureus [14] = test: Bactericidal activity against methicillin-resistant Staphylococcus aureus ATCC 33591 assessed as reduction in bacterial colonies formation at 2XMIC incubated for 12 hrs in MHB followed by culturing on agar plate for 24 hrs by time-kill kinetics based analysis; type: functional; parameters: scale not given: the % may be the effect or the level left; details: time 36 hrs
Staphylococcus aureus [15] = test: Antibacterial activity against methicillin-resistant Staphylococcus aureus ATCC 33591 infected in Kunming mouse assessed as reduction in bacterial load in liver at 5 to 10 mg/kg, ip for 2 days starting from 1 hr post-infection by hematoxylin-eosin staining based analysis; type: functional, organism-based; details: dose 5-10 mg/kg, time 2.0 day
[16] = tested on: Mycoplasmoides gallisepticum; test: Potency index, ratio of tiamulin MIC to test compound MIC against anti-mycoplasma activity against Mycoplasma gallisepticum R NCTC10115; type: functional
[17] = Metabolic stability in Sprague-Dawley rat assessed as parent compound remaining at 3 mg/kg, po measured after 10 mins by LC-MS analysis; type: ADME, organism-based; details: in vivo, read-out: Stability
Staphylococcus aureus [18] = test: Antibacterial activity against methicillin-resistant Staphylococcus aureus ATCC 43300 assessed as inhibition of bacterial growth incubated for 24 hrs by broth microdilution method; type: functional
Mycoplasma genitalium = test: Anti-mycoplasma activity against Mycoplasma genitalium G37 ATCC33530 assessed as inhibition of mycoplasma growth measured after 7 days by broth microdilution method; type: functional; details: Mycoplasmoides genitalium, G37 ATCC33530, 168 h; time 7 day
Cell membrane [19] = test: Disruption of bacterial cell membrane in methicillin-resistant Staphylococcus aureus ATCC 33591 assessed as increase in red fluorescence intensity at 4XMIC incubated for 2 hrs by MycoLightGreen1198/PI staining based confocal laser scanning microscopy; type: subcellular
Cell membrane [20] = test: Disruption of bacterial cell membrane in methicillin-resistant Staphylococcus aureus ATCC 33591 assessed as reduction in green fluorescence intensity at MIC incubated for 2 hrs by MycoLightGreen1198/PI staining based confocal laser scanning microscopy; type: subcellular
Staphylococcus aureus [21] = test: Antibacterial activity against methicillin-resistant Staphylococcus aureus ATCC 33591 infected in Kunming mouse assessed as reduction in inflammatory cell infiltration in lungs at 3 to 10 mg/kg, ip for 2 days starting from 1 hr post-infection by hematoxylin-eosin staining based analysis; type: functional, organism-based; details: dose 3-10 mg/kg, time 2.0 day
Escherichia coli [22] = test: Bactericidal activity against Escherichia coli ATCC 25922 assessed as reduction in bacterial colonies formation at 4XMIC incubated for 4 hrs in MHB followed by culturing on agar plate for 24 hrs by time-kill kinetics based analysis; type: functional; parameters: scale not given: the % may be the effect or the level left; details: time 28 hrs
Staphylococcus aureus [23] = test: Antibacterial activity against […] assessed as inhibition of bacterial growth incubated for 24 hrs by broth microdilution method; type: functional; details: ATCC 29213
[24] = AUC(0 to t) in Sprague-Dawley rat at 1 mg/kg, iv by LC-MS analysis; type: ADME, organism-based; parameters: dose 1 mg/kg, route iv; details: in vivo
Staphylococcus aureus [25] = test: Bactericidal activity against methicillin-resistant Staphylococcus aureus ATCC 33591 assessed as reduction in bacterial colonies formation at MIC incubated for 24 hrs in MHB followed by culturing on agar plate for 24 hrs by time-kill kinetics based analysis; type: functional; details: time 48 hrs
[26] = Cytotoxicity against human A549 cells assessed as reduction in cell viability measured after 48 hrs by CCK8 assay; type: toxicity, cell-based
[27] = Half-life in Sprague-Dawley rat at 1 mg/kg, iv by LC-MS analysis; type: ADME, organism-based; details: in vivo
Staphylococcus aureus [28] = test: Antibacterial activity against methicillin-resistant Staphylococcus aureus ATCC 33591 infected in Kunming mouse assessed as reduction in bacterial load in lungs at 5 to 10 mg/kg, ip for 2 days starting from 1 hr post-infection by hematoxylin-eosin staining based analysis; type: functional, organism-based; details: dose 5-10 mg/kg, time 2.0 day
Acinetobacter baumannii = test: Antibacterial activity against Acinetobacter baumannii ATCC 19606 assessed as inhibition of bacterial growth incubated for 24 hrs by broth microdilution method; type: functional
Staphylococcus aureus [29] = test: Antibacterial activity against methicillin-resistant Staphylococcus aureus 222 assessed as inhibition of bacterial growth incubated for 24 hrs by broth microdilution method; type: functional
Cell membrane [30] = test: Disruption of bacterial cell membrane in Escherichia coli ATCC 25922 assessed as increase in fluorescence intensity by DiBAC4(3) dye based fluorescence analysis; type: subcellular
Cell membrane [31] = test: Disruption of bacterial cell membrane in Escherichia coli ATCC 25922 assessed as severe depression on the cell surface,cell rupture and leakage of intracellular components at 4XMIC incubated for 4 hrs by FESEM analysis; type: subcellular
Cell membrane [32] = test: Disruption of bacterial cell membrane in Escherichia coli ATCC 25922 assessed as increase in red fluorescence intensity at 4XMIC incubated for 2 hrs by MycoLightGreen1198/PI staining based confocal laser scanning microscopy
Staphylococcus aureus [33] = test: Potency index, ratio of moxifloxacin MIC to test compound MIC for antibacterial activity against methicillin-resistant Staphylococcus aureus 171; type: functional

## C=C[C@]1(C)C[C@@H](OC(=O)CSc2nc(-c3cc[n+](Cc4ccc(C)cc4)cc3)cs2)[C@]2(C)[C@H](C)CC[C@]3(CCC(=O)[C@H]32)[C@@H](C)[C@@H]1O.[Br-]
Staphylococcus aureus [1]
  MIC: 4 µg/mL
[2]
  Cmax: 9670 ng/mL
[3]
  clearance: 31.7 mL/min/kg
Staphylococcus aureus [4]
  Activity: Active
[5]
  Tmax: 1.8 min
[6]
  MIC: 1 µg/mL
Cell membrane [7]
  fold change (FC): 6
[8]
  MIC: 0.03 µg/mL
Escherichia coli [9]
  Activity: 6.98 log10CFU/ml
Cell membrane [10]
  Activity: Dose-Dependent Effect
Staphylococcus aureus [11]
  inhibition (INH): 57.97%
Staphylococcus aureus [12]
  Activity: Active
Escherichia coli [13]
  MIC: 0.5 µg/mL
Staphylococcus aureus [14]
  Activity: 100%
Staphylococcus aureus [15]
  Activity: Active
[16]
  Ratio: 10
[17]
  remaining at 10 min: 0%
Staphylococcus aureus [18]
  MIC: 0.5 µg/mL
Mycoplasma genitalium
  MIC: 0.015 µg/mL
Cell membrane [19]
  Activity: 100%
Cell membrane [20]
  Activity: Active
Staphylococcus aureus [21]
  Activity: Active
Escherichia coli [22]
  Activity: 100%
Staphylococcus aureus [23]
  MIC: 0.062 µg/mL
[24]
  AUC(0-t): 539 ng·h/mL
Staphylococcus aureus [25]
  Activity: 4.5 log10CFU/ml
[26]
  CC50 at 48 h: > 100 µM
[27]
  half-life: 43.8 min
Staphylococcus aureus [28]
  Activity: Active
Acinetobacter baumannii
  MIC: 1 µg/mL
Staphylococcus aureus [29]
  MIC: 1 µg/mL
Cell membrane [30]
  Activity: Dose-Dependent Effect
Cell membrane [31]
  Activity: Active
Cell membrane [32]
  Activity: 100%
Staphylococcus aureus [33]
  Ratio: 8
